Assay results published in US20230192772A1, “ANTIMICROBIAL PEPTIDES AND USES THEREOF” (SORBONNE UNIVERSITE, priority 2016, published 2023).
Converted amounts (≈) assume the structure as drawn.

Assays:
Assay in all cases: MIC/MBC (Example 10, MH medium)
Format in all cases: cell-based
[1] = tested on: Escherichia coli ML35p; settings: Table 4
Experimental: (§1) The MIC is determined using a growth inhibition test in liquid medium. The MIC is defined as being the lowest peptide concentration capable of inhibiting the bacterial strain tested, after incubation for 18 h at 37° C. The test was carried out in a sterile microtitration plate containing 96 wells. A series of increasing concentrations of each peptide (0.2 to 100 µM) was prepared beforehand in sterile MilliQ water. In each well, 10 µL of peptide was incubated with 90 µL of bacterial suspension (10^7 cfu/mL) in yeast extract-free LB medium. The microplate was incubated at 37° C. for 18 h. The bacterial growth was evaluated by measuring the OD at 620 nm using a plate reader.
(§2) The negative growth inhibition control was obtained by replacing the solution containing the peptide by sterile MilliQ water. The positive control suitable for completely inhibiting the growth of the bacterial strains was obtained by replacing the solution containing the peptide by 10 µL of formaldehyde.
(§3) The results are interpreted by calculating the percentage of bacterial growth in each well according to the formula:
(§4) %Growth = (OD well - OD of T0)/(OD of T100-OD of T0)*100 where
(§5) • OD of T100 = OD of growth control (bacterial suspension free from sample under test, 100% growth), • OD of T0 = OD of sterility control (culture medium + bacterium + 10 µL formaldehyde, 0% growth) and • OD well = OD of well for which it is sought to calculate the growth percentage (bacterial suspension + peptide under test).
(§6) The MBC is defined as being the minimum peptide concentration leaving no surviving bacteria of the inoculum after incubation at 37° C. for 24 hours. This test consists of smearing the contents of the well wherein the peptide has inhibited bacterial growth on a Petri dish (LB agar), followed by incubation for 24 h at 37° C.
(§7) A 10 mL preculture in Muller-Hinton (MH) medium is prepared by inoculating a colony of the bacterial strain of interest. The preculture is incubated at 37° C. under stirring overnight. The culture is subcultured to 1:100 under the same conditions. The culture concentration is evaluated by measuring the turbidity at 600 nm (OD600 nm 1.0 = 5 × 10^8 CFU/mL for E. coli (Gram-negative bacteria) and 1.5 × 10^8 CFU/mL for S. aureus (Gram-positive bacteria). Once the exponential growth phase (OD600 nm = 0.3 - 0.7) has been achieved, the cultures are diluted in MH medium so as to obtain 10^6 CFU/mL (final inoculum concentration).
(§8) The MIC and the MBC were determined as per the protocol described in part 2.1 of Example 2.

[2] = tested on: Yersinia ruckeri ATCC 29473; settings: Table 4
Experimental: as §1, §2, §3, §4, §5, §6, §7, §8

[3] = tested on: Salmonella enterica CIP 8297; settings: Table 4
Experimental: as §1, §2, §3, §4, §5, §6, §7, §8

[4] = tested on: Enterococcus faecalis CIP A186; settings: Table 4
Experimental: as §1, §2, §3, §4, §5, §6, §7, §8

[5] = tested on: Listeria monocytogenes SOR 100; settings: Table 4
Experimental: as §1, §2, §3, §4, §5, §6, §7, §8

[6] = tested on: Vibrio parahemolyticus IFREMER 01/252; settings: Table 4
Experimental: as §1, §2, §3, §4, §5, §6, §7, §8

[7] = tested on: Pseudomonas aeruginosa ATCC 9027
Experimental: as §1, §2, §3, §4, §5, §6, §7, §8

[8] = tested on: Escherichia coli ATCC 8739
Experimental: as §1, §2, §3, §4, §5, §6, §7, §8

[9] = tested on: Staphylococcus aureus MRSA; settings: Table 4
Experimental: as §1, §2, §3, §4, §5, §6, §7, §8

[10] = tested on: Escherichia coli P7 (ESBL); settings: Table 4
Experimental: as §1, §2, §3, §4, §5, §6, §7, §8

[11] = tested on: Klebsiella pneumoniae CIP 52.211; settings: Table 4
Experimental: as §1, §2, §3, §4, §5, §6, §7, §8

[12] = tested on: Pseudomonas aeruginosa ATCC 27853; settings: Table 4
Experimental: as §1, §2, §3, §4, §5, §6, §7, §8

[13] = tested on: Escherichia coli K12; settings: Table 4
Experimental: as §1, §2, §3, §4, §5, §6, §7, §8

[14] = tested on: Klebsiella oxytoca CIP 7932; settings: Table 4
Experimental: as §1, §2, §3, §4, §5, §6, §7, §8

[15] = tested on: Staphylococcus aureus ST 1065; settings: Table 4
Experimental: as §1, §2, §3, §4, §5, §6, §7, §8

[16] = tested on: Staphylococcus epidermidis BM 3302; settings: Table 4
Experimental: as §1, §2, §3, §4, §5, §6, §7, §8

[17] = tested on: Enterococcus faecalis CIP 103015
Experimental: as §1, §2, §3, §4, §5, §6, §7, §8

[18] = tested on: Lactococcus garviae ATCC 43921; settings: Table 4
Experimental: as §1, §2, §3, §4, §5, §6, §7, §8

[19] = tested on: Kocuria rhizophila ATCC 9341; settings: Table 4
Experimental: as §1, §2, §3, §4, §5, §6, §7, §8

[20] = tested on: Staphylococcus aureus ATCC 6538
Experimental: as §1, §2, §3, §4, §5, §6, §7, §8

[21] = Table 4, Pseudomonas aeruginosa ATCC 9027
[22] = Table 5, P. aeruginosa ATCC 9027
[23] = Table 4, Escherichia coli ATCC 8739
[24] = Table 4, Enterococcus faecalis CIP 103015
[25] = Table 5, E. faecalis CIP 103015
[26] = Table 4, Staphylococcus aureus ATCC 6538

## CC[C@H](C)[C@H](NC(=O)CN)C(=O)NCC(=O)N[C@@H](C)C(=O)N[C@H](C(=O)N[C@@H](CC(C)C)C(=O)N[C@@H](CCCCN)C(=O)N[C@H](C(=O)N[C@@H](CC(C)C)C(=O)N[C@H](C(=O)N[C@H](C(=O)NCC(=O)N[C@@H](CC(C)C)C(=O)N1CCC[C@H]1C(=O)N[C@@H](C)C(=O)N[C@@H](CC(C)C)C(=O)N[C@H](C(=O)N[C@@H](CO)C(=O)N[C@@H](Cc1c[nH]c2ccccc12)C(=O)N[C@H](C(=O)N[C@@H](CCCCN)C(=O)N[C@@H](CCCNC(=N)N)C(=O)N[C@@H](CCCCN)C(=O)N[C@@H](CCCNC(=N)N)C(=O)N[C@@H](CCC(N)=O)C(=O)N[C@@H](CCC(N)=O)C(N)=O)[C@@H](C)CC)[C@@H](C)CC)[C@@H](C)O)[C@@H](C)O)C(C)C)C(C)C [Melittin]
[1]
  MBC: 10 µM (≈ 28.5 µg/mL)
  MIC: 10 µM (≈ 28.5 µg/mL)
[2]
  MBC: 12.5 µM (≈ 35.6 µg/mL)
  MIC: 6.25 µM (≈ 17.8 µg/mL)
[3]
  MBC: > 50 µM
  MIC: 50 µM (≈ 142 µg/mL)
[4]
  MBC: 12.5 µM (≈ 35.6 µg/mL)
  MIC: 12.5 µM (≈ 35.6 µg/mL)
[5]
  MBC: 3.12 µM (≈ 8.88 µg/mL)
  MIC: 1.5 µM (≈ 4.27 µg/mL)
[6]
  MBC: > 50 µM
  MIC: > 50 µM
[7]; [21]
  MBC: 5 µM (≈ 14.2 µg/mL)
  MIC: 5 µM (≈ 14.2 µg/mL)
[7]; [22]
  MBC: 5 µM (≈ 14.2 µg/mL)
  MIC: 5 µM (≈ 14.2 µg/mL)
[8]; [23]
  MBC: 2.5 µM (≈ 7.12 µg/mL)
  MIC: 2.5 µM (≈ 7.12 µg/mL)
[8]; Table 5, E. coli ATCC 8739
  MBC: 2.5 µM (≈ 7.12 µg/mL)
  MIC: 2.5 µM (≈ 7.12 µg/mL)
[9]
  MBC: 12.5 µM (≈ 35.6 µg/mL)
  MIC: 6.25 µM (≈ 17.8 µg/mL)
[10]
  MBC: 6.25 µM (≈ 17.8 µg/mL)
  MIC: 6.25 µM (≈ 17.8 µg/mL)
[11]
  MBC: 10 µM (≈ 28.5 µg/mL)
  MIC: 10 µM (≈ 28.5 µg/mL)
[12]
  MBC: > 50 µM
  MIC: 50 µM (≈ 142 µg/mL)
[13]
  MBC: 10 µM (≈ 28.5 µg/mL)
  MIC: 10 µM (≈ 28.5 µg/mL)
[14]
  MBC: 50 µM (≈ 142 µg/mL)
  MIC: 25 µM (≈ 71.2 µg/mL)
[15]
  MBC: 10 µM (≈ 28.5 µg/mL)
  MIC: 10 µM (≈ 28.5 µg/mL)
[16]
  MBC: 10 µM (≈ 28.5 µg/mL)
  MIC: 10 µM (≈ 28.5 µg/mL)
[17]; [24]
  MBC: 1.25 µM (≈ 3.56 µg/mL)
  MIC: 1.25 µM (≈ 3.56 µg/mL)
[17]; [25]
  MBC: 1.2 µM (≈ 3.42 µg/mL)
  MIC: 1.2 µM (≈ 3.42 µg/mL)
[18]
  MBC: 25 µM (≈ 71.2 µg/mL)
  MIC: 6.25 µM (≈ 17.8 µg/mL)
[19]
  MBC: 0.8 µM (≈ 2.28 µg/mL)
  MIC: 0.8 µM (≈ 2.28 µg/mL)
[20]; [26]
  MBC: 5 µM (≈ 14.2 µg/mL)
  MIC: 5 µM (≈ 14.2 µg/mL)
[20]; Table 5, S. aureus ATCC 6538
  MBC: 5 µM (≈ 14.2 µg/mL)
  MIC: 5 µM (≈ 14.2 µg/mL)
